#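 Compound exposure: 48 hours, 5 concentrations, 96-well plates. Abbreviation: GI50, concentration required for 50% inhibition of growth.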 Activity calls are given as the source filed them. Cut-off read from the data, not from the text of the source: active = GI50 up to about 1.1 µM and inactive = higher.
# Legend:
# Experiment in all cases: DTP human tumour cell line panel, 48 h
# SF-295 = tested on: SF-295
# OVCAR-8 = tested on: OVCAR-8
# NCI-H522 = tested on: NCI-H522
# CCRF-CEM = tested on: CCRF-CEM
# TK-10 = tested on: TK-10
# SK-MEL-5 = tested on: SK-MEL-5
# HOP-92 = tested on: HOP-92
# A549 = tested on: A549
# Malme-3M = tested on: Malme-3M
# HCC 2998 = tested on: HCC 2998
# SF-268 = tested on: SF-268
# NCI-H23 = tested on: NCI-H23
# HOP-62 = tested on: HOP-62
# HCT-15 = tested on: HCT-15
# NCI-H226 = tested on: NCI-H226
# HCT-116 = tested on: HCT-116
Structure (SMILES),GI50 (SF-295),GI50 (OVCAR-8),GI50 (NCI-H522),GI50 (CCRF-CEM),GI50 (TK-10),GI50 (SK-MEL-5),GI50 (HOP-92),GI50 (A549),GI50 (Malme-3M),GI50 (HCC 2998),GI50 (SF-268),GI50 (NCI-H23),GI50 (HOP-62),GI50 (HCT-15) [µM],GI50 (NCI-H226),GI50 (HCT-116)
CCOC(=O)C(C)c1c(C(=O)c2ccc(C)nc2)c2ccccc2n1C (stereo unspecified),> 100 µM (inactive),> 100 µM (inactive),79.6 µM (inactive),> 100 µM (inactive),> 100 µM (inactive),> 100 µM (inactive),82.8 µM (inactive),> 100 µM (inactive),> 100 µM (inactive),> 100 µM (inactive),> 100 µM (inactive),> 100 µM (inactive),> 100 µM (inactive),> 100,–,–
Cc1cc(N(CCC#N)CCC#N)ccc1/N=N/c1ccc(S(N)(=O)=O)cc1,> 100 µM (inactive),> 100 µM (inactive),> 100 µM (inactive),> 100 µM (inactive),> 100 µM (inactive),> 100 µM (inactive),–,> 100 µM (inactive),> 100 µM (inactive),> 100 µM (inactive),> 100 µM (inactive),> 100 µM (inactive),> 100 µM (inactive),> 100,> 100 µM (inactive),–
Cc1ccc(S(=O)(=O)OCOS(=O)(=O)c2ccc(C)cc2)cc1,> 100 µM (inactive),> 100 µM (inactive),> 100 µM (inactive),> 100 µM (inactive),> 100 µM (inactive),> 100 µM (inactive),–,> 100 µM (inactive),> 100 µM (inactive),> 100 µM (inactive),> 100 µM (inactive),> 100 µM (inactive),> 100 µM (inactive),> 100,–,> 100 µM (inactive)
NC(=O)/C(=N\NC(=O)c1cc2ccccc2cc1O)C1C(=O)N(c2ccccc2)N=C1N (stereo unspecified),33 µM (inactive),26.3 µM (inactive),–,11.7 µM (inactive),> 100 µM (inactive),18.4 µM (inactive),22.3 µM (inactive),30.6 µM (inactive),58.7 µM (inactive),37.9 µM (inactive),17.2 µM (inactive),20.3 µM (inactive),34 µM (inactive),–,24.2 µM (inactive),27.2 µM (inactive)
Cc1cc2c(=O)cc(-c3ccc(Cl)cc3)oc2c(C(=O)O)c1C,> 100 µM (inactive),> 100 µM (inactive),29.5 µM (inactive),> 100 µM (inactive),> 100 µM (inactive),> 100 µM (inactive),–,> 100 µM (inactive),> 100 µM (inactive),–,> 100 µM (inactive),> 100 µM (inactive),–,> 100,> 100 µM (inactive),> 100 µM (inactive)
O=C(O)C1=CCCc2ccc3ccccc3c21,> 100 µM (inactive),> 100 µM (inactive),> 100 µM (inactive),> 10 µM (inactive),> 100 µM (inactive),–,> 100 µM (inactive),> 100 µM (inactive),> 100 µM (inactive),–,> 100 µM (inactive),> 100 µM (inactive),–,> 100,> 100 µM (inactive),> 100 µM (inactive)
O=C(Nc1cc([N+](=O)[O-])cc([N+](=O)[O-])c1)OC1C2CCC1C1OC1C2 (stereo unspecified),> 50 µM (inactive),> 50 µM (inactive),29.1 µM (inactive),> 50 µM (inactive),> 50 µM (inactive),31.3 µM (inactive),> 50 µM (inactive),> 50 µM (inactive),22.9 µM (inactive),> 50 µM (inactive),33.7 µM (inactive),> 50 µM (inactive),> 50 µM (inactive),> 50,–,35.8 µM (inactive)
CCNC(=O)C(O)C1(O)CCC2[C@@H]3CCC4=CC(=O)C=C[C@]4(C)C3[C@@H](O)C[C@@]21C (stereo partly specified),> 100 µM (inactive),> 100 µM (inactive),> 100 µM (inactive),32.8 µM (inactive),> 100 µM (inactive),–,–,86.9 µM (inactive),> 100 µM (inactive),> 100 µM (inactive),> 49.4 µM (inactive),> 100 µM (inactive),> 100 µM (inactive),> 100,> 87.5 µM (inactive),> 100 µM (inactive)

# From ChEMBL document CHEMBL1201862, “PubChem BioAssay data set” (2004)
